# Measurements taken from patent publication US11839610B2 (priority 2022, dated 2023).
# Where two headings read alike, the source gives them in different places.
# Tested on: D614G S protein pseudovirus (nCoV-S-Luc-D614G) in ACE2-293T cells
# Assay type: cell-based, SARS-CoV-2
structure (smiles),measurement,setting,value
COc1cc2c3cc1Oc1c4c(cc5c1[C@H](Cc1ccc(cc1)Oc1cc(ccc1O)C[C@H]3N(C)CC2)N(C)CC5)OCO4 [Cepharanoline],"Levels of viral infection, D614G, Ave.",Conc. 0.1 μM,72.97%
same,"Levels of viral infection, D614G, Ave.",Conc. 1 μM,39.14%
same,"Levels of viral infection, D614G, Ave.",Conc. 10 μM,−20.02%
same,IC50,"read-out: 50% inhibitory concentrations (IC50) for viral infection, D614G",0.48 ± 0.09 µM
